From patent US20220017566A1, “TERPINOID DERIVATIVES AND USES THEREOF” (SICHUAN HAISCO PHARMACEUTICAL CO., LTD., priority 2018, published 2022)
pEC50, pIC50: −log10 of the molar value. Where two headings read alike, the source gives them in different places.

What was measured:
NQO1 = NQO1 activity assay in Raw264.7 cell lysates; format: cell-based; conditions: Mus musculus; Raw264.7 cells, 48 hours treatment
Description: Raw264.7 cells were seeded in DMEM+10% FBS in 96-well plates at a density of 10,000 cells per well. 6 hours after plating, cells were treated with DMSO or test compounds (top dose 100 nM, 1:4 serial dilution, 8-point) for 48 hours. NQO1 activity was then detected in cell lysates using NQO1 activity assay kit (Abeam, Cat#ab184867). NQO1 activity was then plotted against compound concentration, and EC50 values were calculated using four-parameter algorithm in Graphpad Prism.

[1] = Metabolic stability in monkey liver microsomes; format: in vitro ADME, cynomolgus monkey
Description: (§1) The metabolic stability of test compounds was examined in CD-1 mouse, Sprague Dawley rat, Beagle dog, cynomolgus monkey, and human liver microsomes. Test compound (final concentration 1 μM) was mixed with diluted liver microsomes from each of the 5 species and a small aliquot was taken at 0, 5, 10, 20, 30, and 60 minutes for LC/MS/MS analysis. Intrinsic clearance and half-life were calculated.

CYP2D6 = molecular target: T1, CYP2D6 (Homo sapiens, UniProt P10635); test: CYP450 enzyme inhibition in liver microsomes (cocktail probe incubation); format: in vitro ADME; conditions: species not given, 0.05-50 μM tested
T1 construct: studied in liver microsomes of CD-1 mouse, Sprague Dawley rat, Beagle dog, cynomolgus monkey, and human; from tissue; host or cells: liver microsomes
T1 sequence (P10635 whole entry): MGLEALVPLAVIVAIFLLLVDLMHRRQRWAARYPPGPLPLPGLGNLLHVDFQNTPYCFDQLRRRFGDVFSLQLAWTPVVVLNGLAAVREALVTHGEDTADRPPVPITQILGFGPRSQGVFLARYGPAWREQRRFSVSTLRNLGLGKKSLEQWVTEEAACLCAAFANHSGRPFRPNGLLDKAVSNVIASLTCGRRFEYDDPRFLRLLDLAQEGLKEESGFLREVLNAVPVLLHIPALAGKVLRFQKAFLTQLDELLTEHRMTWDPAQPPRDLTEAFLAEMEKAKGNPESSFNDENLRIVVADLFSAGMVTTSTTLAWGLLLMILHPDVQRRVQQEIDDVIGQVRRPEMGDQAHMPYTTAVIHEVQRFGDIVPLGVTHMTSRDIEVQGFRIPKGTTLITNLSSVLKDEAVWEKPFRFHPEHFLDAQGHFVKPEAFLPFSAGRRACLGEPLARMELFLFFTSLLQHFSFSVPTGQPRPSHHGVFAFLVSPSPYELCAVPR
Description: (§2) The inhibition potential of test compounds towards major drug metabolizing CYP450 enzymes was studied in liver microsomes of CD-1 mouse, Sprague Dawley rat, Beagle dog, cynomolgus monkey, and human. The inhibition of CYP1A2, CYP2C9, CYP2C19, CYP2D6, and CYP3A4 was assessed using CYP450 specific probe reactions in a cocktail incubation. Seven concentrations of test compounds (0.05, 0.15, 0.5, 1.5, 5, 15, and 50 μM) were evaluated. In addition, known inhibitors for each probe reaction were included as positive controls and incubated at a single concentration above their respective IC50.

CYP2C19 = molecular target: T2, CYP2C19 (Homo sapiens, UniProt P33261); test: as above; format: in vitro ADME; conditions: species not given, 0.05-50 μM tested
T2 construct: studied in liver microsomes of CD-1 mouse, Sprague Dawley rat, Beagle dog, cynomolgus monkey, and human; from tissue; host or cells: liver microsomes
T2 sequence (P33261 whole entry): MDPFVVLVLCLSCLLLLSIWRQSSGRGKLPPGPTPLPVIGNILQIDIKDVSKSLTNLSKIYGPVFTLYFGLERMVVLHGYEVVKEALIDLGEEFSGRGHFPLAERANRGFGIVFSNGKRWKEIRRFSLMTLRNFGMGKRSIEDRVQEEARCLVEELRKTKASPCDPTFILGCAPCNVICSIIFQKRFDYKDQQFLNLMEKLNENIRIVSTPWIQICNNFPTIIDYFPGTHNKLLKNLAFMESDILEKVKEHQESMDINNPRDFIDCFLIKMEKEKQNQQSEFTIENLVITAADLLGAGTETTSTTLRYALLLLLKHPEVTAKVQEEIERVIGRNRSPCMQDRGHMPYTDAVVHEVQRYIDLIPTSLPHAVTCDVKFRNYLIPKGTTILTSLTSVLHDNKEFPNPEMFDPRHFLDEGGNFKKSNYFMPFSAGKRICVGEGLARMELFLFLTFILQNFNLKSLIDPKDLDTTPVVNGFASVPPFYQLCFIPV
Description: as §2

CYP2C9 = molecular target: T3, CYP2C9 (Homo sapiens, UniProt P11712); test: as above; format: in vitro ADME; conditions: species not given, 0.05-50 μM tested
T3 construct: studied in liver microsomes of CD-1 mouse, Sprague Dawley rat, Beagle dog, cynomolgus monkey, and human; from tissue; host or cells: liver microsomes
T3 sequence (P11712 whole entry): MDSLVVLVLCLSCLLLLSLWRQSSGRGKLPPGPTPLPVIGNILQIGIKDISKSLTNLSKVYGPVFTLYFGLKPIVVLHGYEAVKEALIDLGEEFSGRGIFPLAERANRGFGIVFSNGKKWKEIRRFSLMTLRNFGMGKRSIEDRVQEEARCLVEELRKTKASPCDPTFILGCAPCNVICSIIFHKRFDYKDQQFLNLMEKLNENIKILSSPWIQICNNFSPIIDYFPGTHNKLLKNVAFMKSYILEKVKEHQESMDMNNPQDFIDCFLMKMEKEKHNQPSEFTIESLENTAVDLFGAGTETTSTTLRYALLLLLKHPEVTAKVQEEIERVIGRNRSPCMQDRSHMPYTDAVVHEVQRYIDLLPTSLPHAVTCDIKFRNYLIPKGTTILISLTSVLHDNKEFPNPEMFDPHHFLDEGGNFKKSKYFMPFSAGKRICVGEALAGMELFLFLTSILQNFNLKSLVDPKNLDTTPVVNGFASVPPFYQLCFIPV
Description: as §2

CYP1A2 = molecular target: T4, CYP1A2 (Homo sapiens, UniProt P05177); test: as above; format: in vitro ADME; conditions: species not given, 0.05-50 μM tested
T4 construct: studied in liver microsomes of CD-1 mouse, Sprague Dawley rat, Beagle dog, cynomolgus monkey, and human; from tissue; host or cells: liver microsomes
T4 sequence (P05177 1-516): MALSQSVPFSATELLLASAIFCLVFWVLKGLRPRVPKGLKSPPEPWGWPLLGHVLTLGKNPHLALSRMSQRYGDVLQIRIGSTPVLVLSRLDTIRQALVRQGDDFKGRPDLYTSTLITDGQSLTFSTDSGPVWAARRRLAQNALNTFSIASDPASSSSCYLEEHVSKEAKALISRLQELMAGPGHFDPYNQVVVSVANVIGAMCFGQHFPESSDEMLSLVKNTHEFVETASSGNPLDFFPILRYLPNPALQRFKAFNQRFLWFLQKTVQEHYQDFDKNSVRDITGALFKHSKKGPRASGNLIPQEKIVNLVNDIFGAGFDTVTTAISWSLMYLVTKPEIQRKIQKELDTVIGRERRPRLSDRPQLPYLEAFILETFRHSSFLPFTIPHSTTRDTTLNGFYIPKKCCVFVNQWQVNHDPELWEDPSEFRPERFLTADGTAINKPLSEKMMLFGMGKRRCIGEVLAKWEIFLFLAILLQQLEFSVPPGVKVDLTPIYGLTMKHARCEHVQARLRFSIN
Description: as §2

CYP3A4 = molecular target: T5, CYP3A4 (Homo sapiens, UniProt P08684); test: as above; format: in vitro ADME; conditions: species not given, 0.05-50 μM tested
T5 construct: studied in liver microsomes of CD-1 mouse, Sprague Dawley rat, Beagle dog, cynomolgus monkey, and human; from tissue; host or cells: liver microsomes
T5 sequence (P08684 whole entry): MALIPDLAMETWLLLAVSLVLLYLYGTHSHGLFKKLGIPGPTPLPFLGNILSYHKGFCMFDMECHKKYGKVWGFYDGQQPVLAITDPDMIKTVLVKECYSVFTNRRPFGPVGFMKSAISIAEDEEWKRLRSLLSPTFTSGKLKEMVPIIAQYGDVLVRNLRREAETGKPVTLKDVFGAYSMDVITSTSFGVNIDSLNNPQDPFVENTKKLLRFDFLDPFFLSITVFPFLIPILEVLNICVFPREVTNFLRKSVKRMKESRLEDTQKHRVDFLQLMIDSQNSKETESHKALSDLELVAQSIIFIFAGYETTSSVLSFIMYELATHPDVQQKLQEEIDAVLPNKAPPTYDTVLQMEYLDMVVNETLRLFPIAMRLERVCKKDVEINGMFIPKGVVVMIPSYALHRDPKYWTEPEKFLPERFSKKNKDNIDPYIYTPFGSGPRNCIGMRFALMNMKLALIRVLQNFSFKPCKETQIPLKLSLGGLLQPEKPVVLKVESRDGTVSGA
Description: as §2

[2] = system: IFNγ-induced NO production in Raw 264.7 cells; test: Nitric oxide assay: suppression of IFNγ-induced NO production (Griess nitrite, adjusted to live cell numbers); format: cell-based; conditions: Mus musculus, RAW264.7, 2 h pretreatment, IFNγ 10 ng/ml for 24 hours
Description: Raw 264.7 cells were seeded in 96-well plates at a density of 30, 000 cells per well in DMEM+10% FBS and incubated overnight. The next day, cell media was replaced by DMEM+2% FBS. Cells were pretreated with DMSO or test compounds (top dose 100 nM, 1:4 serial dilution, 10-point) for 2 hours and then treated with recombinant mouse IFNγ (R&D, Cat# 485-MI-100) at a final concentration of 10 ng/ml for 24 hours. Nitrite levels were measured in culture media as a surrogate for nitric oxide using the Griess Reagent System (Promega, Cat# G2930). Cell viability was determined using CellTiter Glo reagents (Promega, Cat#G7572). The nitrite levels were adjusted to live cell numbers and inhibition percentage was calculated. The inhibition percentage was then plotted against compound concentration, and IC50 values were calculated using four-parameter algorithm in Graphpad Prism.

[3] = Pharmacokinetic studies in Sprague Dawley rats (oral gavage and IV); format: in vivo; conditions: rat, male SD rats, plasma; for AUC(0-t): read-out: AUC0-24 h; for bioavailability: oral 5 mg/kg vs IV 1 mg/kg, read-out: Bioavailibility F %
Description: The pharmacokinetics of test compounds was evaluated in male SD rats when administered via oral gavage and IV injection. For oral dosing, compound was formulated in 0.5% methylcellulose and administered at doses of 5 mg/kg (3 rats per dose level) and volume of 10 mL/kg. For IV dosing, compound was formulated in 5% DMSO/5% Solutol/90% saline and administered to 3 rats at a dose of 1 mg/kg and a volume of 5 mL/kg. The rats were fasted overnight before administration. Plasma samples were collected predose and at 0.5, 1, 3, 6, 9, 12, and 24 hours postdose. The samples were analyzed by LC/MS/MS and the concentration of test compound at each timepoint was determined by linear regression. Pharmacokinetic parameters were calculated from the plasma concentrations using Pheonix WinNonlin.

[4] = Metabolic stability in dog liver microsomes; format: in vitro ADME; conditions: Beagle
Description: as §1

[5] = Metabolic stability in rat liver microsomes; format: in vitro ADME; conditions: Sprague Dawley
Description: as §1

[6] = Metabolic stability in human liver microsomes; format: in vitro ADME
Description: as §1

[7] = Metabolic stability in mouse liver microsomes; format: in vitro ADME, CD-1 mouse; conditions: CD-1
Description: as §1

pEC50 (NQO1)	CLint scaled at 1 μM [1]	half-life at 1 μM [1]	pIC50 (CYP2D6)	pIC50 (CYP2C19)	pIC50 (CYP2C9)	pIC50 (CYP1A2)	pIC50 (CYP3A4)	pIC50 [2]	C0 ([3]; IV (1 mg/kg))	clearance ([3]; IV (1 mg/kg))	half-life ([3]; IV (1 mg/kg))	CLint scaled at 1 μM [4]	half-life at 1 μM [4]	CLint scaled at 1 μM [5]	half-life at 1 μM [5]	CLint scaled at 1 μM [6]	half-life at 1 μM [6]	CLint scaled at 1 μM [7]	half-life at 1 μM [7]	further results	SMILES
> 8.00	269 mL/min/kg	7 min	4.82	4.93	5.57	< 4.30	6.00	> 8.00	349 ng/mL	63.8 mL/min/kg	102 min	37 mL/min/kg	54 min	42 mL/min/kg	59.4 min	168 mL/min/kg	7.4 min	423 mL/min/kg	13 min	AUC(0-t) ([3]; IV (1 mg/kg)): 258 ng·h/mL; Cmax ([3]; Oral (5 mg/kg)): 170 ng/mL; half-life ([3]; Oral (5 mg/kg)): 132 min; AUC(0-t) ([3]; Oral (5 mg/kg)): 1100 ng·h/mL; bioavailability [3]: 83.8%	Cc1nnc([C@@]2(C)CC[C@]3(C)CC[C@]4(C)[C@H](C(=O)C=C5[C@@]6(C)C=C(C#N)C(=O)C(C)(C)[C@@H]6CC[C@]54C)[C@@H]3C2)o1 [Example 1, (4aR,6aS,6bR,8aS,11S,12aS,12bR,14bS)-4,4,6a,6b,8a,11,14b-heptamethyl-11-(5-methyl-1,3,4-oxadiazol-2-yl)-3,13-dioxo-3,4,4a,5,6,6a,6b,7,8,8a,9,10,11,12,12a,12b,13,14b-octadecahydropicene-2-carbonitrile]
7.00 to 8.00	294 mL/min/kg	6.4 min	< 4.30	< 4.30	5.16	< 4.30	5.18	> 8.00	1300 ng/mL	63.3 mL/min/kg	84 min	58.4 mL/min/kg	34.2 min	87.2 mL/min/kg	28.6 min	96.2 mL/min/kg	13 min	289 mL/min/kg	19 min	AUC(0-t) ([3]; IV (1 mg/kg)): 263 ng·h/mL; Cmax ([3]; Oral (5 mg/kg)): 32 ng/mL; half-life ([3]; Oral (5 mg/kg)): 78 min; AUC(0-t) ([3]; Oral (5 mg/kg)): 102 ng·h/mL; bioavailability [3]: 7.8%	CC1(C)C(=O)C(C#N)=C[C@]2(C)C3=CC(=O)[C@@H]4[C@@H]5C[C@@](C)(c6nnc(C(N)=O)o6)CC[C@]5(C)CC[C@@]4(C)[C@]3(C)CC[C@@H]12 [Example 25, 5-((2S,4aS,6aR,6bS,8aR,12aS,14aR,14bS)-11-cyano-2,4a,6a,6b,9,9,12a-heptamethyl-10,14-dioxo-1,2,3,4,4a,5,6,6a,6b,7,8,8a,9,10,12a,14,14a,14b-octadecahydropicen-2-yl)-1,3,4-oxadiazole-2-carboxamide]
7.00 to 8.00								> 8.00													C/S(CC(=O)N[C@]12CCC(C)(C)C[C@H]1[C@H]1C(=O)C=C3[C@@]4(C)C=C(C#N)C(=O)C(C)(C)[C@@H]4CC[C@@]3(C)[C@]1(C)CC2)=N\C#N (stereo partly drawn) [Example 5, N-((4aS,6aR,6bS,8aR,12aS,14aR,14bS)-11-cyano-2,2,6a,6b,9,9,12a-heptamethyl-10,14-dioxo-1,3,4,5,6,6a,6b,7,8,8a,9,10,12a,14,14a,14b-hexadecahydropicen-4a(2H)-yl)-2-((E)-N-cyano-S-methylsulfinimidoyl)acetamide]
> 8.00			< 4.30	4.72	5.07	< 4.30	5.49	> 8.00													CC1(C)C(=O)C(C#N)=C[C@]2(C)C3=CC(=O)[C@@H]4[C@@H]5C[C@@](C)(N6CCC(O)C6)CC[C@]5(C)CC[C@@]4(C)[C@]3(C)CC[C@@H]12 (stereo partly drawn) [Example 20, (4aR,6aS,6bR,8aS,11S,12aS,12bR,14bS)-11-(3-hydroxypyrrolidin-1-yl)-4,4,6a,6b,8a,11,14b-heptamethyl-3,13-dioxo-3,4,4a,5,6,6a,6b,7,8,8a,9,10,11,12,12a,12b,13,14b-octadecahydropicene-2-carbonitrile]
7.00 to 8.00	156 mL/min/kg	12 min	5.33	4.75	5.47	< 4.30	5.17	> 8.00				81.6 mL/min/kg	24.5 min	50.3 mL/min/kg	49.6 min	50.7 mL/min/kg	24.6 min	150 mL/min/kg	36.5 min		CNC(=NC#N)NC[C@]12CCC(C)(C)C[C@H]1[C@H]1C(=O)C=C3[C@@]4(C)C=C(C#N)C(=O)C(C)(C)[C@@H]4CC[C@@]3(C)[C@]1(C)CC2 [Example 3, 2-cyano-1-(((4aS,6aR,6bS,8aR,12aS,14aR,14bS)-11-cyano-2,2,6a,6b,9,9,12a-heptamethyl-10,14-dioxo-1,3,4,5,6,6a,6b,7,8,8a,9,10,12a,14,14a,14b-hexadecahydropicen-4a(2H)-yl)methyl)-3-methylguanidine]
> 8.00	782 mL/min/kg	2.4 min	4.69	4.60	5.66	< 4.30	5.77		500 ng/mL	53 mL/min/kg	72 min	313 mL/min/kg	6.4 min	157 mL/min/kg	15.9 min	397 mL/min/kg	3.1 min	1750 mL/min/kg	3.1 min	AUC(0-t) ([3]; IV (1 mg/kg)): 314 ng·h/mL; Cmax ([3]; Oral (5 mg/kg)): 177 ng/mL; half-life ([3]; Oral (5 mg/kg)): 78 min; AUC(0-t) ([3]; Oral (5 mg/kg)): 521 ng·h/mL; bioavailability [3]: 33.2%	CC1(C)C(=O)C(C#N)=C[C@]2(C)C3=CC(=O)[C@@H]4[C@@H]5C[C@@](C)(C#N)CC[C@]5(C)CC[C@@]4(C)[C@]3(C)CC[C@@H]12 [Example 2, (2S,4aS,6aR,6bS,8aR,12aS,14aR,14bS)-2,4a,6a,6b,9,9,12a-heptamethyl-10,14-dioxo-1,2,3,4,4a,5,6,6a,6b,7,8,8a,9,10,12a,14,14a,14b-octadecahydropicene-2,11-dicarbonitrile]
